Common to all, as to format: cell-based
Series [1] has as its system A2058 (human melanoma cells). The series is described as follows: A2058 cell scratch (migration) assay with LPA. Particulars: 10 μM LPA, scratch area at 24 h. The procedure: The activity of the compounds disclosed herein at the cell level in vitro is evaluated by A2058 (human melanoma cells, Beina Bio, BNCC341099) cell scratch assay. The inhibitory activity of the compounds against LPAR1 can be reflected by inhibition of cell scratch healing.
After the cell confluence reached 80%, the cell culture plate was taken out and the original medium was discarded. Serum-free medium was then added, and the cells were starved overnight in an incubator (37° C., 5% CO2). The cell culture plate was then taken out, and cell scratches were made along the diameter of the wells using a 200 μL pipette tip. The cell culture plate was then added with 500 μL of serum-free medium and then shaken gently to wash away the residual cells on the scratched surface, and this was repeated twice. The medium was discarded and 500 μL of 1% FBS medium containing the compound was then added, and the mixture was incubated at 37° C. for 30 min. […] Olympus CKX53 was used to observe the scratches, and MShot image analysis system was used to take pictures and measure the scratch area at 0 h. The plate was incubated in the incubator under the conditions of 37° C. and 5% CO2. 24 h later, the scratches were observed again with Olympus CKX53, and MShot image analysis system was used to take pictures and measure the scratch area at 24 h. Cell migration inhibition rate was calculated according to the following formula: […]

The target in series [2] is hLPAR1 (human lysophosphatidic acid receptor 1) (Homo sapiens, UniProt Q92633). Put plainly: FLIPR assay of intracellular calcium increase induced by activation of hLPAR1 expressed in CHO-K1 cells. The settings on record: CHO-K1 cells expressing hLPAR1, agonist oleoyl-L-α-lysophosphatidic acid 1 μM; read-out: LPAR1 IC50. The procedure:
The antagonist property of the compounds disclosed herein was determined using the FLIPR (fluorescence imaging plate reader) method, wherein the compounds are inhibitors for the intracellular calcium increase induced by activation of hLPAR1 (human lysophosphatidic acid receptor 1, accession No. NM_001401.4) expressed in CHO-K1 cells (Chinese hamster ovary cells K1, ATCC).
Cells at 250,000 cells/mL were seeded into a 96-well plate (25,000 cells/well) 18-24 h prior to the FLIPR experiment and then incubated overnight in a cell incubator. […] Each well was added with 75 μL of […] Fluo-4 AM fluorescent dye (Thermo, F14202) and then the cells were subjected to dye-loading incubation at 37° C. for 1.0 h. The 96-well plate was then washed once with buffer, added with a buffer containing a test compound or a vehicle at 50 μL per well and then incubated for 30 min at room temperature. […] An agonist (oleoyl-L-α-lysophosphatidic acid sodium salt (Sigma, L7260)) at a final concentration of 1 μM or a vehicle (ultrapure water) was then added at 50 μL/well, fluorescence values were measured for 2 min at 1-second intervals, and finally the output fluorescence counts were analyzed.
On the technique in general: A change in cytosolic calcium serves as a functional read-out for many receptors and channels.

Series [3] is described as follows: In vitro cytotoxicity assay in HepG2 cells, CCK-8 method. Particulars: human. The procedure:
In vitro cytotoxicity assay for the compounds disclosed herein was performed in HepG2 cells using the CCK-8 method. HepG2 cells (Beina Bio) in the logarithmic growth phase were collected, the concentration of cell suspension was adjusted, and then the cells were plated on a 96-well cell culture plate at 50,000 cells/well. The cells were then incubated overnight in a cell incubator (5% CO2, 37° C.), and after 80-90% cell confluence was achieved, test compounds or vehicle (DMSO) at various concentration gradients were added after medium change. The resulting mixture was incubated in the cell incubator (5% CO2, 37° C.) for 48 h. After the treatment, the medium in the plate was discarded. The plate was washed twice with PBS, added with CCK-8 working solution (Beyotime) at 100 μL per well, and then incubated at 37° C. for 1.5 h away from the light. Absorbance at OD450 nm was measured for each well on a microplate reader, and CC50 value of each compound was analyzed and calculated.
(In general: Tetrazolium assays rely on reduction of a dye to a coloured formazan, in cell work by metabolically active cells.)

Sequence of hLPAR1 (human lysophosphatidic acid receptor 1) (Q92633 whole entry): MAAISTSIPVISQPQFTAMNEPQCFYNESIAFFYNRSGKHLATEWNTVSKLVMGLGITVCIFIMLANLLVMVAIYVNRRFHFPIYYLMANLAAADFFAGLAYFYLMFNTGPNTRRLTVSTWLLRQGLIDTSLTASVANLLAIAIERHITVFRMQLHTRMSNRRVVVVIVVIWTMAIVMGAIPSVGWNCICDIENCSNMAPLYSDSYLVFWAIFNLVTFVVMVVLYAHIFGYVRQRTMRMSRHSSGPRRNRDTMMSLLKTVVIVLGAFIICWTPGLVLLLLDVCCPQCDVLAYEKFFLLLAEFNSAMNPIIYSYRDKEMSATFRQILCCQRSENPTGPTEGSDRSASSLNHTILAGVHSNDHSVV

Consider `Cc1nc(-c2snc(C)c2COC(=O)N(C)C2CCCC2)ccc1O[C@H]1CCC[C@H](C(=O)O)C1` (racemic) [Compound 40], for which the “Cell migration inhibition rate (%)” value in series [1] is reported as “A (A: 50-70%)”. Besides, the IC50 – broadly, the midpoint of a concentration-inhibition curve – in series [2] was below 0.05 µM. Further, the CC50 (in general, the concentration that lowers cell viability or growth by half) at 48 h in series [3] was above 200 µM.
In the same order, the values of `Cc1noc(-c2ccc(O[C@H]3CCC[C@H](C(=O)O)C3)c(C(F)(F)F)n2)c1COC(=O)N(C)C1CCCC1` [Compound 37] are “A (A: 50-70%)”, below 0.05 µM and above 200 µM.
For `Cc1csc(-c2ccc(O[C@H]3CCC[C@H](C(=O)O)C3)c(C)n2)c1COC(=O)N(C)C1CCCC1` (racemic) [Compound 46] the same measures were “A (A: 50-70%)”, below 0.05 µM and above 200 µM.
As for `Cc1cnn(-c2ccc(O[C@H]3CCC[C@H](C(=O)O)C3)cc2)c1COC(=O)N(C)C1CCCC1` (racemic) [Compound 30, (+/−)-(1S,3S)-3-(4-(5-(((cyclopentyl(methyl)carbamoyl)oxy)methyl)-4-methyl-1H-pyrazol-1-yl)phenoxy)cyclohexanoic Acid], in series [1], the “Cell migration inhibition rate (%)” value is listed as “B (B: 30-50%)”. The IC50 in series [2] was below 0.05 µM. The molecule also displayed a CC50 at 48 h in series [3] above 200 µM.
Regarding `Cc1nc(-c2ncn(C)c2COC(=O)N(C)C2CCCC2)ccc1O[C@H]1CCC[C@H](C(=O)O)C1` (racemic) [Compound 17, (+/−)-(1S,3S)-3-((6-(5-(((cyclopentyl(methyl)carbamoyl)oxy)methyl)-1-methyl-1H-imidazol-4-yl)-2-methylpyridin-3-yl)oxy)cyclohexane-1-carboxylic Acid], the “Cell migration inhibition rate (%)” value in series [1] is “C (C: 0-30%)”. Besides, in series [2], the concentration for half-maximal inhibition (IC50) was in the range of 0.05 to 0.3 µM. Moreover, the CC50 at 48 h in series [3] was above 200 µM.
In the same order, the values of `Cc1nc(-c2c(C(F)(F)F)nn(C)c2COC(=O)N(C)C2CCCC2)ccc1O[C@H]1CCC[C@H](C(=O)O)C1` (racemic) [Compound 33] are “B (B: 30-50%)”, below 0.05 µM and above 200 µM.
In the case of `Cc1nc(-c2c(Cl)nn(C)c2COC(=O)N(C)C2CCCC2)ccc1O[C@H]1CCC[C@H](C(=O)O)C1` (racemic) [Compound 56, (+/−)-(1S,3S)-3-((6-(3-chloro-5-(((cyclopentyl(methyl)carbamoyl)oxy)methyl)-1-methyl-1H-pyrazol-4-yl)-2-methylpyridin-3-yl)oxy)cyclohexane-1-carboxylic Acid], the “Cell migration inhibition rate (%)” value in series [1] is “A (A: 50-70%)”. The IC50 in series [2] is below 0.05 µM. Besides, in series [3], the CC50 at 48 h was above 200 µM.
For `CN(Cc1ccccc1)C(=O)OCc1c(-c2ccc(O[C@H]3CCC[C@H](C(=O)O)C3)cc2)cnn1C` (racemic) [Compound 2, (+/−)-(1S,3S)-3-(4-(5-(((benzyl(methyl)carbamoyl)oxy)methyl)-1-methyl-1H-pyrazol-4-yl)phenoxy)cyclohexane-1-carboxylic Acid] the same measures were “C (C: 0-30%)”, 0.3 to 10 µM and above 200 µM.
Turning to `Cc1nc(-c2cnnc(COC(=O)N(C)C3CCCC3)c2)ccc1O[C@H]1CCC[C@H](C(=O)O)C1` (racemic) [Compound 47], the “Cell migration inhibition rate (%)” value in series [1] was “B (B: 30-50%)”. Moreover, in series [2], the IC50 was below 0.05 µM. The molecule further returned a CC50 at 48 h in series [3] above 200 µM.
For the molecule `CN(C(=O)OCc1c(-c2ccc(O[C@H]3CCC[C@H](C(=O)O)C3)c(Cl)n2)cnn1C)C1CCCC1` (racemic) [Compound 61, (+/−)-(1S,3S)-3-((2-chloro-6-(5-(((cyclopentyl(methyl)carbamoyl)oxy)methyl)-1-methyl-1H-pyrazol-4-yl)pyridin-3-yl)oxy)cyclohexane-1-carboxylic Acid], the “Cell migration inhibition rate (%)” value in series [1] is listed as “A (A: 50-70%)”. Moreover, the IC50 in series [2] is below 0.05 µM. In series [3], the CC50 at 48 h was above 200 µM.
In the case of `Cc1nc(-c2[nH]nc(C)c2COC(=O)N(C)C2CCCC2)ccc1O[C@H]1CCC[C@H](C(=O)O)C1` (racemic) [Compound 53], in series [1], the “Cell migration inhibition rate (%)” value is “A (A: 50-70%)”. The IC50 in series [2] is below 0.05 µM. Further, the CC50 at 48 h in series [3] is above 200 µM.
